Measured values from publication PMC4718910 (SpringerPlus, 2016).
Where two headings read alike, the source gives them in different places. One block for each compound: values may come before it.

Assays:
[1] = Afatinib plasma pharmacokinetics (HPLC-MS/MS); type: in vivo, human; details: for AUC / Tmax: human, plasma, po; for AUC: read-out: AUCtau,ss, geometric mean; for Tmax: read-out: tmax,ss, median
[2] = tested on: ErbB4; details: read-out: half maximal inhibitory concentration, ErbB4; ref Li et al. [2008]; cited from earlier work
[3] = Letrozole plasma pharmacokinetics (HPLC-MS/MS); type: in vivo, human
Description: For quantification of drug plasma concentrations, 5 mL of venous blood was collected. […] Letrozole plasma concentrations were determined by a validated HPLC–MS/MS assay at Nuvisan Pharma Services GmbH & Co. KG, Neu-Ulm, Germany.

[4] = tested on: HER2; details: read-out: half maximal inhibitory concentration, HER2; ref Li et al. [2008]; cited from earlier work
[5] = tested on: HER2-positive metastatic breast cancer (MBC); design: method as in Lin et al. [2012]; details: afatinib monotherapy 50 mg/day, heavily pre-treated HER2-positive MBC after trastuzumab; ref Lin et al. [2012]; cited from earlier work
[6] = tested on: ErbB3; design: method as in Li et al. [2008]; details: ref Li et al. [2008]; cited from earlier work
[7] = tested on: ER/PgR/HER2-positive MBC; design: method as in Kaufman et al. [2009]; details: N 207, ref Kaufman et al. [2009]; cited from earlier work
[8] = tested on: ER/PgR-positive MBC; design: method as in Huober et al. [2012]; details: ref Huober et al. [2012], cited from earlier work
[9] = tested on: ER/PgR-positive HER2-negative MBC; design: method as in Bachelot et al. [2012]; details: aromatase inhibitor-resistant, N 111; ref Bachelot et al. [2012]; cited from earlier work
[10] = Afatinib 30 mg multiple oral administrations with letrozole 2.5 mg, N 5
[11] = Afatinib 40 mg multiple oral administrations with letrozole 2.5 mg, N 4
[12] = ER/PgR-positive HER2-negative MBC, N 35

Cpre,ss, 57, geometric mean ([1]; Afatinib 30 mg with letrozole 2.5 mg, pre-dose day 1 of cycle 3, N 8): 15.8 ng/mL
Cpre,ss, 85, geometric mean ([1]; Afatinib 30 mg with letrozole 2.5 mg, pre-dose day 1 of cycle 4, N 5): 17.3 ng/mL
Cpre,ss, 57, geometric mean ([1]; Afatinib 40 mg with letrozole 2.5 mg, pre-dose day 1 of cycle 3, N 5): 21.4 ng/mL
Cpre,ss, 85, geometric mean ([1]; Afatinib 40 mg with letrozole 2.5 mg, pre-dose day 1 of cycle 4, N 4): 16.9 ng/mL
AUC [1, 10]: 579 ng·h/mL
Tmax [1, 10]: 4 h
AUC [1, 11]: 660 ng·h/mL
Tmax [1, 11]: 2 h
effect of afatinib on letrozole exposure ([3]; letrozole trough and 2-h post-dose plasma concentrations, screening period vs afatinib treatment period): no effect
SMILES: CN(C)C/C=C/C(=O)Nc1cc2c(Nc3ccc(F)c(Cl)c3)ncnc2cc1O[C@H]1CCOC1 [Afatinib]
IC50 [4]: 14 nM
Median PFS [5]: 15 weeks
overall survival (OS) [5]: 61 weeks
ErbB3 transphosphorylation [6]: inhibits ErbB3 transphosphorylation

SMILES: CC(C)(C#N)c1cc(Cn2cncn2)cc(C(C)(C)C#N)c1 [Anastrozole]
Median PFS (independent assessment) [7]: 2.4 (independent assessment) months

SMILES: N#Cc1ccc(C(c2ccc(C#N)cc2)n2cncn2)cc1 [Letrozole]
AUC ([3]; human, plasma, oral, 2.5 mg, read-out: geometric mean AUCtau,ss): 2420 ng·h/mL
Cmax ([3]; human, plasma, oral, 2.5 mg, read-out: geometric mean Cmax,ss): 135 ng/mL
Grade ≥3 bone pain [8, 12]: Bone pain 6%
Median PFS [8, 12]: 15.2 months
Median PFS ([8]; ER/PgR/HER2-positive MBC, first-line): 3.3 months
Grade ≥3 bone pain ([8]; ER/PgR/HER2-positive MBC): 7%
Grade ≥3 dyspnea ([8]; ER/PgR/HER2-positive MBC): 7%

SMILES: CC/C(=C(\c1ccccc1)c1ccc(OCCN(C)C)cc1)c1ccccc1 [Tamoxifen]
Clinical benefit rate [9]: Clinical benefit rate = 42%
